{"source": "paper PMC6635953", "about": "(Journal of medicinal chemistry, 2019)", "key": {"human MTAP": {"molecular_target": "T1, human MTAP (Homo sapiens, UniProt Q13126)", "T1 sequence (Q13126 1-283)": "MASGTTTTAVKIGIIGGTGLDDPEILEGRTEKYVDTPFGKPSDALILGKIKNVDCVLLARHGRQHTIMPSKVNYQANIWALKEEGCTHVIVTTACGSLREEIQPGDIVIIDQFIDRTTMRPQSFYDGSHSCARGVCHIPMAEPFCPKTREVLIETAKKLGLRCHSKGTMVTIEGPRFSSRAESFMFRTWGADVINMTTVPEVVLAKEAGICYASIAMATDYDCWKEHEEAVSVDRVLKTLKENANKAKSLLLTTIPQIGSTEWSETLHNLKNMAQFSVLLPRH", "experiment": "Inhibition assay of MTAP", "format": "biochemical", "conditions": "for binding to the catalytic site of MTAP: at concentrations of 5 μM inhibitor"}, "HpMTAN": {"molecular_target": "T2, HpMTAN (Helicobacter pylori, UniProt Q9ZMY2)", "T2 sequence (Q9ZMY2 1-230)": "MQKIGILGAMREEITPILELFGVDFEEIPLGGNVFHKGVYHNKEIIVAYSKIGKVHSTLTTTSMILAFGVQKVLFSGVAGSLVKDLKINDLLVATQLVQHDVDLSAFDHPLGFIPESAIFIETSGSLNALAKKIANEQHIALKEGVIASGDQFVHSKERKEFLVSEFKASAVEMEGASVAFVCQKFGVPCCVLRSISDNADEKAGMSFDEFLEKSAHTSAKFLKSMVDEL", "experiment": "Inhibition assay of HpMTAN", "format": "biochemical", "conditions": "for preference for HpMTAN (specificity ratio Kd Hs/Hp): affinity for human MTAP relative to HpMTAN; for binding to the catalytic site of HpMTAN: at concentrations of 5 μM inhibitor"}}, "data": [{"smiles": "CSC[C@H]1CN(Cc2c[nH]c3c(N)nccc23)C[C@@H]1O", "note": "[compound 8, 3-deazaMTDIA]", "values": [{"measurement": "increase of dissociation constant relative to MTDIA (1), MTAP", "setting": "human MTAP; compared with 1 (86 pM)", "result": "> 100", "unit": "fold"}, {"measurement": "increase of dissociation constant relative to MTDIA (1), HpMTAN", "setting": "HpMTAN; compared with 1 (86 pM)", "result": "> 100", "unit": "fold"}]}, {"smiles": "Nc1ncnc2c(CN3C[C@H](CSCCCc4cn(Cc5ccccc5)nn4)[C@@H](O)C3)c[nH]c12", "note": "[compound 32]", "values": [{"measurement": "Kd", "setting": "HpMTAN", "result": "0.026 to 0.055", "unit": "nM"}]}, {"smiles": "C#CCCCSC[C@H]1CN(Cc2c[nH]c3c(N)ncnc23)C[C@@H]1O", "note": "[compound 16]", "values": [{"measurement": "Kd", "setting": "HpMTAN", "result": "0.026 to 0.055", "unit": "nM"}, {"measurement": "preference for HpMTAN (specificity ratio Kd Hs/Hp)", "setting": "HpMTAN", "result": "12- to 36 fold"}]}, {"smiles": "CSC[C@H]1CN(Cc2c[nH]c3c(=O)[nH]ccc23)C[C@@H]1O", "note": "[compound 35]", "values": [{"measurement": "binding to the catalytic site of MTAP", "setting": "human MTAP", "result": "eliminates binding"}, {"measurement": "binding to the catalytic site of HpMTAN", "setting": "HpMTAN", "result": "eliminates binding"}]}, {"smiles": "C#CCSC[C@H]1CN(Cc2c[nH]c3c(N)ncnc23)C[C@@H]1O", "note": "[compound 15]", "values": [{"measurement": "Kd", "setting": "HpMTAN", "result": "0.026 to 0.055", "unit": "nM"}, {"measurement": "preference for HpMTAN (specificity ratio Kd Hs/Hp)", "setting": "HpMTAN", "result": "12- to 36 fold"}]}, {"smiles": "CCCCn1cc(CCCSC[C@H]2CN(Cc3c[nH]c4c(N)ncnc34)C[C@@H]2O)nn1", "note": "[compound 30]", "values": [{"measurement": "Kd", "setting": "HpMTAN", "result": "0.026 to 0.055", "unit": "nM"}]}, {"smiles": "O=c1[nH]ccc2c(CN3C[C@H](CO)[C@@H](O)C3)c[nH]c12", "note": "[compound 34]", "values": [{"measurement": "binding to the catalytic site of MTAP", "setting": "human MTAP", "result": "eliminates binding"}, {"measurement": "binding to the catalytic site of HpMTAN", "setting": "HpMTAN", "result": "eliminates binding"}]}]}
